{"source": "paper PMC10415494", "about": "“Ga(III) pyridinecarboxylate complexes: potential analogues of the second generation of therapeutic Ga(III) complexes?” (Journal of Biological Inorganic Chemistry, 2023)", "key": {"[1]": {"test_system": "Escherichia coli (E. coli) CCM 3988", "assay": "Antimicrobial activity, macrodilution method (growth by A590)", "type": "cell-based", "experimental": "(§1) The antimicrobial activities of gallium(III) complexes GaPic, GaDpic, GaChel, GaCldpic, free ligands (HPic, H2Dpic, H2Chel, H2Cldpic) and positive controls (cefoxitin (C), ampicillin (A) and piperacillin (P)) were evaluated by macrodilution method using G^+ bacteria (Firmicutes) Staphylococcus aureus (S. aureus) CCM 3953 (Czech Collection of Microorganisms), G^− bacteria (γ-proteobacteria) Escherichia coli (E. coli) CCM 3988, Pseudomonas aeruginosa (P. aeruginosa) CCM 1959 (Czech Collection of Microorganisms) and the yeast Candida parapsilosis (C. parapsilosis) ATCC 22019 (American type culture collection). Cultures of bacteria (in Mueller–Hinton broth, MHB) and yeasts (in Sabouraud’s growth medium, SB) were incubated under shaking (250 rpm) at 37 °C. The growth of bacteria and yeasts was evaluated by measuring the absorbance of the growing cultures (A590) until the cultures reached the stationary growth phase. The effects of gallium(III) complexes on the growth of filamentous fungi Rhizopus oryzae (R. oryzae) CCM F-8284, Alternaria alternata (A. alternata) CCM F-128 and Microsporum gypseum (M. gypseum) CCM F-8342 (Czech Collection of Microorganisms) were observed by macrodilution method on solidified potato-dextrose growth medium (PDA). During culturing, the diameters of growing fungal colonies were measured at regular intervals. Briefly, the antimicrobial activity (bacteria and yeasts) gallium(III) complexes/ ligands were added to the microbial culture at the beginning of the cultivation-to the lag phase. Pure gallium(III) complexes/ligands were dissolved in DMSO. The final concentration of DMSO never exceeded 1.0 vol. % neither in control nor treated samples. Concentration of gallium(III) complexes used in experimental work for evaluation of antimicrobial activity was used in the range of 0.05–2 mM, for the free ligands in the range of 0.5–2.0 mM in all experiments. […] The IC50 values were evaluated from toxicity curves. All the obtained results of antimicrobial activity were compared to the activity of Ga(NO3)3."}, "[2]": {"test_system": "Pseudomonas aeruginosa (P. aeruginosa) CCM 1959", "assay": "Antimicrobial activity, macrodilution method (growth by A590)", "type": "cell-based", "experimental": "as §1"}, "[3]": {"test_system": "Staphylococcus aureus (S. aureus) CCM 3953", "assay": "Antimicrobial activity, macrodilution method (growth by A590)", "type": "cell-based", "settings": "Bacteria; MHB, 37 °C; DMSO max 1.0 vol. %; read-out: IC50 S. aureus", "experimental": "as §1"}, "[4]": {"test_system": "Candida parapsilosis (C. parapsilosis) ATCC 22019", "assay": "Antimicrobial activity, macrodilution method (yeast, growth by A590)", "type": "cell-based", "settings": "Yeast; Sabouraud's growth medium, 37 °C; read-out: IC50 C. parapsilosis", "experimental": "as §1"}, "[5]": {"test_system": "Alternaria alternata (A. alternata) CCM F-128", "assay": "Growth of filamentous fungi, macrodilution method on solidified PDA (colony diameter)", "type": "cell-based", "settings": "Filamentous fungi; solidified potato-dextrose growth medium; read-out: IC50 A. alternata", "experimental": "as §1"}, "[6]": {"test_system": "Microsporum gypseum (M. gypseum) CCM F-8342", "assay": "Growth of filamentous fungi, macrodilution method on solidified PDA (colony diameter)", "type": "cell-based", "settings": "Filamentous fungi; solidified potato-dextrose growth medium; read-out: IC50 M. gypseum", "experimental": "as §1"}, "[7]": {"test_system": "Rhizopus oryzae (R. oryzae) CCM F-8284", "assay": "Growth of filamentous fungi, macrodilution method on solidified PDA (colony diameter)", "type": "cell-based", "settings": "solidified potato-dextrose growth medium; read-out: IC50 R. oryzae", "experimental": "as §1"}, "[8]": {"test_system": "A2058 (human metastatic melanoma)", "assay": "MTS antiproliferative assay", "experimental": "(§2) Cell culture the cell lines A2058 (human metastatic melanoma), BLM (human metastatic melanoma), HCT116 (human colorectal carcinoma), HeLa (human cervical adenocarcinoma), Jurkat (human leukaemic T cell lymphoma). […] Cells were maintained in standard conditions with an atmosphere containing 5% CO2 at 37 °C.\n(§3) The antiproliferative activity of Ga(III) complexes GaPic, GaDpic, GaChel, GaCldpic, free ligands (HPic, H2Dpic, H2Chel, H2Cldpic) and cisplatin (cisPt) were evaluated by colorimetric microculture MTS (3-(4,5-dimethylthiazol-2-yl)-5-(3-carboxymethoxyphenyl)-2-(4-sulfophenyl)-2H tetrazolium) assay (Promega, Madison, WI, USA). Cancer and non-cancer cells were seeded at density 5 × 10^3 cells/well in 96-well polystyrene microplates. Twenty-four hours after cell seeding, different concentrations (1.0—100.0 µM) of the compounds were tested. After 72 h of incubation, 10 µL of MTS was added to each well. After an additional 2 h, cell proliferation was evaluated by measuring of absorbance at wavelength 490 nm using the automated Cytation™ 3 Cell Imaging Multi-Mode Reader (Biotek, Winooski, VT, USA). The absorbance of control wells was taken as 100%, and the results were expressed as a percent of untreated control. IC50 values were calculated from MTS analyses."}, "[9]": {"test_system": "HCT116 (human colorectal carcinoma)", "assay": "MTS antiproliferative assay", "experimental": "as §2, §3"}, "[10]": {"test_system": "HeLa (human cervical adenocarcinoma)", "assay": "MTS antiproliferative assay", "experimental": "as §2, §3"}, "[11]": {"test_system": "Jurkat (human leukaemic T cell lymphoma)", "assay": "MTS antiproliferative assay", "experimental": "as §2, §3"}, "[12]": {"test_system": "MDA-MB-231 (human mammary gland adenocarcinoma)", "assay": "MTS antiproliferative assay", "experimental": "as §2, §3"}, "[13]": {"test_system": "PaTu 8902 (human pancreatic adenocarcinoma)", "assay": "MTS antiproliferative assay", "experimental": "as §2, §3"}, "[14]": {"test_system": "human dermal fibroblasts (HDF)", "assay": "in vitro", "experimental": "as §2, §3"}, "[15]": {"assay": "Complex stability in biological testing medium by time-dependent 1H NMR", "type": "physicochemical", "settings": "300 K, over 96 h", "experimental": "Nuclear magnetic resonance (NMR) data were collected on a Varian VNMRS 600 spectrometer operating at 599.87 MHz for ^1H. The concentration of all samples was approximately 3 mg/0.6 mL of 1% DMSO-d6/D2O. For comparison, the spectra of pure acids were also measured, while the pH of the solution of acids was adjusted to the same value as the solution of the complexes. The chemical shifts were referenced to the TSP (3-(trimethylsilyl)propionic-2,2,3,3-d4 acid sodium salt) peak (^1H NMR 0.00 ppm). The NMR data were recorded at 300 K, with chemical shifts δ reported in parts per million and coupling constants J in Hertz. All data were analysed using MestReNova 12.0.0 (2017) software. The stability in 1% DMSO-d6/D2O was determined for all samples. […]"}, "Solubility (qualitative)": {"assay": "Solubility (qualitative)", "type": "physicochemical"}, "[16]": {"settings": "cited from earlier work"}, "[17]": {"parameters": "method as in doi:10.1002/hlca.19600430611", "settings": "cited from earlier work"}}}
{"compound": "O.O.O=C([O-])c1cc(Cl)cc(C(=O)[O-])n1.O=C([O-])c1cc(Cl)cc(C(=O)[O-])n1.[Ga+3].[Ga+3].[OH-].[OH-]", "note": "[GaCldpic, [Ga(Cldpic)(H2O)(OH)]2]", "values": [{"measurement": "IC50", "setting": "[1]; Bacteria, MHB, 37 °C, DMSO max 1.0 vol. %, read-out: IC50 E. coli", "value": "> 2000", "unit": "µM"}, {"measurement": "partial inhibition of E. coli growth", "setting": "[1]; concentration not given", "value": 30, "unit": "%"}, {"measurement": "IC50", "setting": "[2]; Bacteria, MHB, 37 °C, DMSO max 1.0 vol. %, read-out: IC50 P. aeruginosa", "value": 50, "unit": "µM"}, {"measurement": "MIC100 (MIC) P. aeruginosa", "setting": "[2]; growth fully inhibited (100%)", "value": 500, "unit": "µM"}, {"measurement": "IC50", "setting": "[3]", "value": "> 2000", "unit": "µM"}, {"measurement": "IC50", "setting": "[4]", "value": "> 2000", "unit": "µM"}, {"measurement": "IC50", "setting": "[5]", "value": "> 2000", "unit": "µM"}, {"measurement": "IC50", "setting": "[6]", "value": "> 2000", "unit": "µM"}, {"measurement": "IC50", "setting": "[7]", "value": "> 2000", "unit": "µM"}, {"measurement": "IC50", "setting": "[8]", "value": "294 ± 57.5", "unit": "µM"}, {"measurement": "IC50", "setting": "[9]", "value": "404 ± 47.7", "unit": "µM"}, {"measurement": "IC50", "setting": "[10]", "value": "447 ± 134", "unit": "µM"}, {"measurement": "IC50", "setting": "[11]", "value": "405 ± 87", "unit": "µM"}, {"measurement": "IC50", "setting": "[12]", "value": "271 ± 68.3", "unit": "µM"}, {"measurement": "IC50", "setting": "[13]", "value": "437 ± 22.6", "unit": "µM"}, {"measurement": "IC50", "setting": "[14]", "value": "447 ± 27.6", "unit": "µM"}, {"measurement": "stability in 1% DMSO-d6/D2O solution", "setting": "[15]", "value": "stable"}, {"measurement": "solubility in ethanol", "setting": "Solubility (qualitative)", "value": "slightly soluble"}]}
{"compound": "O=C(O)c1cccnc1", "note": "[nicotinic, nicotinic acid]", "values": [{"measurement": "dissociation constant pK2", "setting": "[16]", "value": 4.66}]}
{"compound": "Fe(Dpic)2", "values": [{"measurement": "stability constant logβ021", "setting": "[17]", "value": 17.13}]}
